How the values were obtained:
DDR1 = target: T1, DDR1 (Homo sapiens, UniProt Q08345); experiment: Measurement of DDR1 inhibitory activity (LanthaScreen system, in vitro test); type: binding; settings: GST-DDR1, Kinase tracer 178
T1 construct: purchased Invitrogen
Experimental: Biological Experiment Example 1: Measurement of an DDR1 Inhibitory Activity (In Vitro Test)
An DDR1 enzyme inhibitory activity was measured by using LanthaScreen (registered trademark) system (Invitrogen) based on the attached instruction. The reagents used are shown below.
Assay buffer: 5× Kinase buffer A (Invitrogen) was diluted 5-fold with ddH2O.
1× Kinase Buffer A: 50 mmol/L HEPES pH 7.5, 10 mmol/L MgCl2, 1 mmol/L EGTA, 0.01% Brij-35.
2×DDR1 Solution: a solution containing […] GST-DDR1 (Invitrogen) was prepared by using Assay buffer.
2× Tracer/antibody solution: a solution containing 20 nmol/L Kinase tracer 178 (Invitorgen) and […] Eu-Anti-GST Antibody (Invitorogen) was prepared by using Assay buffer. Test compound solution: a solution containing a test compound of 2-fold concentration with respect to the final concentration was prepared by 50-fold diluting a DMSO solution of test compound of each concentration with the Assay buffer.
• 1 Add 5 μL 2×DDR1 Solution to proxiplate (PerkinElmer) • 2 Add 5 μL test compound solution to proxiplate • 3 Incubate for 15 min at RT • 4 Add 5 μL 2× Tracer/Antibody solution to all well Incubate 1 h at RT • 6 Read LANCE Eu on Envision (PerkinElmer) (Ex: 320 nm/Em 665 nm & 615 nm)
In the low control group, 5 μL Assay buffer was added instead of 5 μL 2×DDR1 Solution and the final 1% DMSO solution was added instead of test compound solution.
In the high control group, the final 1% DMSO solution was added instead of test compound solution.
(§1) The inhibition rate (%) in the test compound group was calculated based on the following mathematical formula.
% inhibition=100−100*(assay value of test compound−A)/(B−A) [Math. 1]
A: average value of low control group B: average value of high control group
Values of 50% inhibition rate (IC50 values) of the test compound were calculated from the inhibition curve based on the inhibition rate of the test compounds in each concentration.

[1] = target: T2, DDR1 phosphorylation in T-47D (ATCC, HTB-133) cells (Homo sapiens, UniProt Q08345); experiment: Measurement of DDR1 phosphorylation suppression rate by using T-47D cells (p-DDR1 ELISA); type: cell-based; settings: collagen Type I 10 μg/ml, p-DDR1 (panTyr) ELISA
T2 construct: host or cells: T-47D
T2 sequence (Q08345 19-913): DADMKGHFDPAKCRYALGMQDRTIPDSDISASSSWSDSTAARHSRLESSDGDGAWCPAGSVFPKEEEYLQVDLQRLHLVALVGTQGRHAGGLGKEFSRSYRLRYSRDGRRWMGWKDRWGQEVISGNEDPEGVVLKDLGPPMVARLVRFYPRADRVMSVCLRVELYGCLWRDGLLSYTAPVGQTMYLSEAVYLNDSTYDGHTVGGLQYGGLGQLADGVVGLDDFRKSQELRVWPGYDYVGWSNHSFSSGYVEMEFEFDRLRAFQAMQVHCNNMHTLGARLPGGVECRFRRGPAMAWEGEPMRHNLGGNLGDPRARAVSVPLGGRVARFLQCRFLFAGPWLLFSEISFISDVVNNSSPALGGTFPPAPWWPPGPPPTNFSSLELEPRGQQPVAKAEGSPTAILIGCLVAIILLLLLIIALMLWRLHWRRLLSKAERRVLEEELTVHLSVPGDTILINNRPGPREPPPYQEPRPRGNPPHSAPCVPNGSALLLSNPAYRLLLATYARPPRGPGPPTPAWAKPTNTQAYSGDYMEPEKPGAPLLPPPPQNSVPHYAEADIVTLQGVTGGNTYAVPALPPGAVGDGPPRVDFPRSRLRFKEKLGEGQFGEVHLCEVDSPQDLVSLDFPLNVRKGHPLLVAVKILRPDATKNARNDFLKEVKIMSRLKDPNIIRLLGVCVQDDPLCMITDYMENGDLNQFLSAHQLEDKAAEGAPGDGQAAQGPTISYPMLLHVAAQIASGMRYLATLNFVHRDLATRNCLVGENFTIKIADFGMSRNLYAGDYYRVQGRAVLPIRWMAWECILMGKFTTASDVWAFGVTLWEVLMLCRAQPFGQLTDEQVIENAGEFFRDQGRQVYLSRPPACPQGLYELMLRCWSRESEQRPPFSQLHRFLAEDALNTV
Experimental: Biological Example 2: Measurement of DDR1 Phosphorylation Suppression Rate by Using T-47D (ATCC, HTB-133) cells
T-47D cells should be in culture for at least 7 days before using in the assay.
Cell culture medium: RPMI 1640 (HyClone) containing 10% Heat-FBS (HyClone) was prepared.
Assay medium: RPMI 1640 containing 0.1% BSA (solarbio) was prepared.
Collagen Type I (rat tail) solution: Assay medium containing 200 μg/mL Collagen I, rat tail (Gibco) was prepared.
Cell lysis buffer: a solution containing IX cell lysis buffer (CST) and 1× protease and phosphatase inhibitor cocktail (Thermofisher) was prepared by using ddH2O.
• 1. Collect cells into tubes and centrifuge at 1200 rpm for 5 min, at room temperature. Re-suspend the cells in cell culture medium pre-warmed to room temperature. • 2. Count cells and suspend at a density of 2×10^5/ml of cell culture medium. Plate the cells at 100 μL per well (Corning 3599 96-well plate, 2×10^4 cells per well final), mixing the cells well between each draw of the pipettor. • 3. Put lid on cell plate and place into the incubator at 37° C., 5% CO2 • 4. Culture cell overnight
• 1. Remove the plate from the incubator • 2. Cell medium is replaced with the 90 μL Assay medium.
• 1. Compound plates are pre-titrated using DMSO (10-fold dilution for 6 points) • 2. Dilute test compound using assay medium; Transfer 1 μL compound to other 96 well plate and then add 49 μL assay medium to each well (50 fold dilution). • 3. Add 5 μL the diluted test compound solution to the appropriate wells by pipettor. Compound final concentration is start from […] and DMSO final concentration is 0.1 • 4. Tap the plates gently to mix in compound. Reseal the plate with a lid and place in the incubator again, for 24 h.
• 1. Diluted collagen Type I in assay medium to the 200 μg/ml concentration • 2. Using the pipettor adds 5 μL of 200 μg/mL collagen Type I solution to the cell plate (compound well and High control well, collagen final conc. is 10 μg/ml). Add assay medium buffer to the control wells (low control well) • 3. Reseal the plate with a lid and place in the incubator. Incubate 24 h for collagen type I
• 1. After incubation, add 100 µL per well Cell lysis buffer. • 2. Incubate 30 min on ice, then freezing to −80° C. to get the fully cell lysates. • 3. Transfer cell lysates to new plate • 4. Centrifuge for 30 min (×4000 rpm) at 4° C. Then transfer the supernatant to a new plate.
p-DDR1 (panTyr) ELISA kit (CST) was used in the study. The measurement was carried out according to the attached instruction.
as §1
% inhibition=100−100*(assay value of test compound−A)/(B−A) [Math. 2]
A: average value of low control group B: average value of high control group Values of 50% inhibition rate (IC50 values) of the test compound were calculated from the inhibition curve based on the inhibition rate of the test compounds in each concentration.

KDR = KDR (Homo sapiens, UniProt P35968); experiment: Evaluation of kinase selectivity: % inhibition rate of KDR at 1 μmol/L; type: biochemical; settings: compound at 1 μmol/L
Sequence of KDR (P35968 20-1356, species assumed): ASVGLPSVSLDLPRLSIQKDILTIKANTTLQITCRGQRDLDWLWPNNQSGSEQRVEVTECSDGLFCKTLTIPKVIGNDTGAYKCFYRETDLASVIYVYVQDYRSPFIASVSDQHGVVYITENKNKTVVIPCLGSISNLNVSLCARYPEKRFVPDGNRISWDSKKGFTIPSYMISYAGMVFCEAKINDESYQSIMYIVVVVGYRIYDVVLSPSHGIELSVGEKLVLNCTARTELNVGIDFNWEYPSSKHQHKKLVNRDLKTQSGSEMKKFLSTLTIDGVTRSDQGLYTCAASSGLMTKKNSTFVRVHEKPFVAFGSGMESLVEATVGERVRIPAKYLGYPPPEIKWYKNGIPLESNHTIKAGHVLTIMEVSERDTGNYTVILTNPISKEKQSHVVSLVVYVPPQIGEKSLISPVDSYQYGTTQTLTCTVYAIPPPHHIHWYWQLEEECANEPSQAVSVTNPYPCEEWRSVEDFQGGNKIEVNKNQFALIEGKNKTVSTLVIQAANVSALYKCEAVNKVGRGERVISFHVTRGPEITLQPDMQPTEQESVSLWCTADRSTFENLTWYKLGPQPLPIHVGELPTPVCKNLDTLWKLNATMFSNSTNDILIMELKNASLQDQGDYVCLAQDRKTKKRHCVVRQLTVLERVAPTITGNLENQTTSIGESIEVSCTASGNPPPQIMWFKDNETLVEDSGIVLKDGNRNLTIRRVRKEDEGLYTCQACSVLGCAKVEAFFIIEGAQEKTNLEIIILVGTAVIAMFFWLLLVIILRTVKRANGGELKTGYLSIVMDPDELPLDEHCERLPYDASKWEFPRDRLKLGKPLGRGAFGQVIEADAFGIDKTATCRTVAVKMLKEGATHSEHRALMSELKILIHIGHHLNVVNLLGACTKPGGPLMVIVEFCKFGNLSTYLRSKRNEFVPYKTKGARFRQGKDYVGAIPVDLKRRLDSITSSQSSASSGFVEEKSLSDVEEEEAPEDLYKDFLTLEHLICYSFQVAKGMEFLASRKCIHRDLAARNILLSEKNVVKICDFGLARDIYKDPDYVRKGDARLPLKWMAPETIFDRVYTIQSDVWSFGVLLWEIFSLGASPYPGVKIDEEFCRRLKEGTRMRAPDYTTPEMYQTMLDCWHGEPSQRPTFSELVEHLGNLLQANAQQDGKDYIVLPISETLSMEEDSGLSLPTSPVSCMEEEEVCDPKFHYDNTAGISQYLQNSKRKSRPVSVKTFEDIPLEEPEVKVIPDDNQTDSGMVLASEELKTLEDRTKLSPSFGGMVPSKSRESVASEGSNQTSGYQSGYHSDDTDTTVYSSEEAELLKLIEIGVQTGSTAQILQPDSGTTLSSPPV
Experimental: (§2) Biological Example 3: Evaluation of Kinase Selectivity
(§3) % inhibition rate with respect to various kinases (for example KDR etc.) of 1 μmol/L the test compound is measured.
(§4) A general assay condition (substrates, cofactor, ATP concentrations and reaction time etc.) suitable for respective kinase enzyme inhibition activity test is used.
(§5) 1 Prepare the test compounds into 1 mmol/L DMSO solution. 2 Transfer 20 nL of stock to 384 assay plate. Use DMSO as High and Low controls.
(§6) 1 Prepare the 1.3× Enzyme solution containing enzyme, substrate and cofactors. 2 Add 15 μL of 1.3× Enzyme solutions to each well and incubate the plate at room temperature for 30 min. 3 Initiate the reaction by adding 5 μL of 4×ATP solution. The final volume of each well should be 20 μL. 4 Incubate the plate at room temperature for reaction and add 75 μL of stopping buffer (containing 0.5 mol/L EDTA) to terminate the reaction.
(§7) Analyze the sample of each well using EZ reader (PerkinElmer).
(§8) Calculate the % Inhibition using read conversion ratio (CR) following the equation as below.
(§9) Use well treated with DMSO as High Control Use well without enzyme as Low Control

Flt-3 = target: T3, Flt-3 (Homo sapiens, UniProt P36888); experiment: Evaluation of kinase selectivity: % inhibition rate of Flt-3 at 1 μmol/L; type: biochemical; settings: compound at 1 μmol/L
T3 sequence (P36888 27-993): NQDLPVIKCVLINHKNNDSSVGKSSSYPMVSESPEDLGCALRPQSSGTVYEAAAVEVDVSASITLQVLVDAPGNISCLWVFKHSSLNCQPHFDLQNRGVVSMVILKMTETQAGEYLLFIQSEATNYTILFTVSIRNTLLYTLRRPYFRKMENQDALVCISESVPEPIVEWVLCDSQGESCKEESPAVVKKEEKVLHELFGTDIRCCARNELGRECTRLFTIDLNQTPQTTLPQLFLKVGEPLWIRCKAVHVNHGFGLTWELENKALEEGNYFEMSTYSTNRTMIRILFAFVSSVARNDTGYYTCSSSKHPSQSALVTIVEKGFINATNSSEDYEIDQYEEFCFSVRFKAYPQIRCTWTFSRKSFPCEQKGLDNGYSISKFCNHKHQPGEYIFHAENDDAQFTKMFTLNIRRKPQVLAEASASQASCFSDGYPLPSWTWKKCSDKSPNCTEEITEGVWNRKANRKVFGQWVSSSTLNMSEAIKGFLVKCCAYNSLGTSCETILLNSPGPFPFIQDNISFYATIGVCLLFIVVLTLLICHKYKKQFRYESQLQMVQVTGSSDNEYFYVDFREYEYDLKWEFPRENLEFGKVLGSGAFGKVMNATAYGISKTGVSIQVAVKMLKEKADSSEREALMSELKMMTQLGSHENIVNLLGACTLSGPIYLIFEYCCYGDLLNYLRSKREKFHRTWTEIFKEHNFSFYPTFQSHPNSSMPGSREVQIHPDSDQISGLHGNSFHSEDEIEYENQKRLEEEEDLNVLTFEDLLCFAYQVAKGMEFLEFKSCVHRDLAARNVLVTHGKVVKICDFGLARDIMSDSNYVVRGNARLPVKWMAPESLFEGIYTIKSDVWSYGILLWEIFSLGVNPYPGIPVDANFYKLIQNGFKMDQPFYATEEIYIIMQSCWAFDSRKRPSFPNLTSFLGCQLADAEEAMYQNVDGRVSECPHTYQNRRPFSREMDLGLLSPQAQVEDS
Experimental: as §2, §3, §4, §5, §6, §7, §8, §9

ROCK = ROCK (Homo sapiens, UniProt O75116); experiment: Evaluation of kinase selectivity: % inhibition rate of ROCK at 1 μmol/L; type: biochemical; settings: compound at 1 μmol/L; read-out: % inhibition rate of ROCK2
Sequence of ROCK (O75116 whole entry): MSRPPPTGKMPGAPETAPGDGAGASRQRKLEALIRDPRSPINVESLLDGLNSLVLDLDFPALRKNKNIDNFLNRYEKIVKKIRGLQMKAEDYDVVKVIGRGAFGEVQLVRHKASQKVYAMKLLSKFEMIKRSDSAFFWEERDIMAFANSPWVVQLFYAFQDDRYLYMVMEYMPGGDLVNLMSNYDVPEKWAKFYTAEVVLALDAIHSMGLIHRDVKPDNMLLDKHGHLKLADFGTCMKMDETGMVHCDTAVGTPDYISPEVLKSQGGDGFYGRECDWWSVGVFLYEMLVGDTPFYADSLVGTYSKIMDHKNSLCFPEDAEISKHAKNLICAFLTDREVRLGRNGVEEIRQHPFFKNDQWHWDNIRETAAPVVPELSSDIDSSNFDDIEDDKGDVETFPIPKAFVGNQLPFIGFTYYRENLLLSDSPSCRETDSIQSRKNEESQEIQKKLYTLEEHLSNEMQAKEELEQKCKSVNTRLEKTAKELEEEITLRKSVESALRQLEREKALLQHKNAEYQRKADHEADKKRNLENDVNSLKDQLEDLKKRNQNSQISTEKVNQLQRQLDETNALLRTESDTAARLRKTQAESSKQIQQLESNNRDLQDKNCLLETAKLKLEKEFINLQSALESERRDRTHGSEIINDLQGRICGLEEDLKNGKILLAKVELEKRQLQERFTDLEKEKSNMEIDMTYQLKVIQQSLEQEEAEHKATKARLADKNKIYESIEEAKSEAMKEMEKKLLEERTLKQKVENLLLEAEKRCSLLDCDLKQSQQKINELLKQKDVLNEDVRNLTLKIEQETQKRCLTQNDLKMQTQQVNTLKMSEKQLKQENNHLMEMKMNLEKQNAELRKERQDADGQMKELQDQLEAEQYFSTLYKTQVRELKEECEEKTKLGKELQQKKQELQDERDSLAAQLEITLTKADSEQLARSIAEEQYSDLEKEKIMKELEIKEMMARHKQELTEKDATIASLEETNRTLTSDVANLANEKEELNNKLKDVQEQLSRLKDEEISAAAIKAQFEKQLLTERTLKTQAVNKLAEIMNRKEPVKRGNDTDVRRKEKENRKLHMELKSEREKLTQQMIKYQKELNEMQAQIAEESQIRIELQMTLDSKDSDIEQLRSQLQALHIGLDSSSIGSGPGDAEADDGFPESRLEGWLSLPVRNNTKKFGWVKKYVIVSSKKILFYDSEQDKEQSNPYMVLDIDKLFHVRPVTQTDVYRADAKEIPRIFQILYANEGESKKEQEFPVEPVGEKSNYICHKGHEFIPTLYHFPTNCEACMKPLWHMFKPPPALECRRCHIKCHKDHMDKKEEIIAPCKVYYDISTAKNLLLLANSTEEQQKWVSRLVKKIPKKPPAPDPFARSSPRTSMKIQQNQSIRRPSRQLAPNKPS
Experimental: as §2, §3, §4, §5, §6, §7, §8, §9

T1 sequence (Q08345 19-913): as the sequence (Q08345 19-913) above

| SMILES | IC50 (DDR1) [nM] | IC50 [1] [nM] | inhibition at 1 µM (KDR) [%] | inhibition at 1 µM (Flt-3) [%] | inhibition at 1 µM (ROCK) [%] |
| --- | --- | --- | --- | --- | --- |
| O=C1CN(c2cncc(C(F)(F)F)c2)C(=O)N1c1ccc(Oc2cnc3[nH]ncc3c2)cc1 [Example 1(11), 3-[4-(1H-pyrazolo[3,4-b]pyridin-5-yloxy)phenyl]-1-[5-(trifluoromethyl)-3-pyridinyl]-2,4-imidazolidinedione] | 1 | 1 | 2 | 16 | -2 |
| Cc1cc(Oc2ccnc(N)n2)ccc1N1C(=O)CN(c2cncc(C(F)(F)F)c2)C1=O [Example 2, 3-{4-[(2-amino-4-pyrimidinyl)oxy]-2-methylphenyl}-1-[5-(trifluoromethyl)-3-pyridinyl]-2,4-imidazolidinedione] | 5 | 3 | 1 | 4 | -5 |
| O=C1CN(c2cncc(C(F)(F)F)c2)C(=O)N1C12CCC(Oc3ncnc4[nH]ccc34)(CC1)C2 [Example 3(65), 3-[4-(7H-pyrrolo[2,3-d]pyrimidin-4-yloxy)bicyclo[2.2.1]hept-1-yl]-1-[5-(trifluoromethyl)-3-pyridinyl]-2,4-imidazolidinedione] | 3 | 2 | -1 | 5 | 5 |
| O=C1CN(c2cncc(C(F)(F)F)c2)C(=O)N1C12CCC(Oc3ncnc4[nH]cc(F)c34)(CC1)C2 [Example 42(1), 3-{4-[(5-fluoro-7H-pyrrolo[2,3-d]pyrimidin-4-yl)oxy]bicyclo[2.2.1]hept-1-yl}-1-[5-(trifluoromethyl)-3-pyridinyl]-2,4-imidazolidinedione] |  | 8 | -3 | -2 | -8 |

Reference: patent US20220306640A1, “HYDANTOIN DERIVATIVE” (ONO PHARMACEUTICAL CO., LTD., priority 2019, published 2022)
